In brackets after ≈: the same amount, converted by molar mass. Entries after “also recorded” stand apart in the source; their conditions may differ.
Legend:
[1] = test system: AGE formation (BSA-fructose model); experiment: Protein glycation inhibition assay, BSA-fructose model; type: biochemical, bovine; conditions: 37 °C, 6 days
Protocol: The bovine serum albumin (BSA) and glucose/fructose assay was carried according to the method of Błaszczak et al. with some modifications. We prepared 25 mL of the test solution containing D-glucose or D-fructose (1.0 M), BSA (10 mg/mL) and sodium azide (0.1 mg/mL) in the phosphate buffer (0.1 M, pH 7.4). The test solution (1 mL) was incubated in the dark at 37 °C for 13 days for glucose and for 6 days for fructose with or without 0.5 mL of tested V. opulus samples. […] Next, the formation of AGE was evaluated based on fluorescence intensity at λ = 330 nm (excitation wave) and λ = 460 nm (emission wave). Fluorescence intensity was measured in 96-well plates (black, OptiPlate-96 F, PerkinElmer, UK) in a microplate reader (Synergy2, BioTek Instruments Inc., Winooski, VT, USA).

[2] = test system: AGE formation (BSA-glucose model); experiment: Protein glycation inhibition assay, BSA-glucose model; type: biochemical, bovine; conditions: 37 °C, 13 days
Protocol: The bovine serum albumin (BSA) and glucose/fructose assay was carried according to the method of Błaszczak et al. [45] with some modifications. We prepared 25 mL of the test solution containing D-glucose or D-fructose (1.0 M), BSA (10 mg/mL) and sodium azide (0.1 mg/mL) in the phosphate buffer (0.1 M, pH 7.4). The test solution (1 mL) was incubated in the dark at 37 °C for 13 days for glucose and for 6 days for fructose with or without 0.5 mL of tested V. opulus samples. […] Next, the formation of AGE was evaluated based on fluorescence intensity at λ = 330 nm (excitation wave) and λ = 460 nm (emission wave). Fluorescence intensity was measured in 96-well plates (black, OptiPlate-96 F, PerkinElmer, UK) in a microplate reader (Synergy2, BioTek Instruments Inc., Winooski, VT, USA).

[3] = biological target: rat intestinal α-glucosidase; experiment: α-glucosidase inhibition assay (glucose release from disaccharide); type: biochemical
Protocol: The assessment of the α-glucosidase activity was slightly modified according to […] et al. and Gao et al.. […] Enzyme isolation was performed in an ultrasonic cleaner (for 30 sec) in an ice bath, then 30 sec without ultrasonic. This step was repeated 12 times. After that, the solution was centrifuged at 4 °C (3000 rpm, 30 min). 50 μL of diluted V. opulus samples were mixed with 50 μL of enzyme supernatant (diluted 2 times for reaction with maltose). After incubation at 37 °C for 10 min, 50 μL of substrate (0.1 M maltose or 0.5 M sucrose solution prepared in 0.1 M phosphate buffer, pH 6.9) was added and incubated in a 96-well microplate at 37 °C for 20 min for maltose and 60 min for sucrose. The reaction was stopped by adding 150 μL of 2 M Tris-HCl buffer (pH 7.0). The concentration of glucose released from the reaction mixture was determined by the commercial glucose test (BIOMAXIMA SA, Lublin, Poland).

[4] = biological target: T1, α-amylase from porcine pancreas (Sus scrofa, UniProt P00690); experiment: Mode of α-amylase inhibition (Lineweaver-Burk); type: biochemical; conditions: for type of inhibition against α-amylase: regardless of the type of starch
T1 construct: α-amylase from porcine pancreas type VI-B; purchased Sigma Aldrich (Steinheim, Germany) type VI-B (catalogue number not given); host or cells: porcine pancreas
T1 sequence (P00690 16-511): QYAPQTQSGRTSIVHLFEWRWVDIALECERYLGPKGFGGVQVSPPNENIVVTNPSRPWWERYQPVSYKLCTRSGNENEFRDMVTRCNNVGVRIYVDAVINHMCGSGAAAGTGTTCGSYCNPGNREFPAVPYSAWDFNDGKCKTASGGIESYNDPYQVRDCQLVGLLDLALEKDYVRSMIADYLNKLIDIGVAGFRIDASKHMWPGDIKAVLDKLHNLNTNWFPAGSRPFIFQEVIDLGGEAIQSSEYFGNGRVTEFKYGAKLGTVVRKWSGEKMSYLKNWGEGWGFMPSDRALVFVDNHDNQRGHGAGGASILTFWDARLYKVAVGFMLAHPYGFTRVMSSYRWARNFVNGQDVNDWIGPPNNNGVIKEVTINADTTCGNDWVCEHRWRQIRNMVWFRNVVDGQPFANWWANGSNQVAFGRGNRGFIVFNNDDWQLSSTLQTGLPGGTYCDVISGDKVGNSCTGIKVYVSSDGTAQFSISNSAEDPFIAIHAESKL
Protocol: (§1) The α-amylase inhibition assay was based on a previously-described spectrophotometric method with some modifications. All reagents were prepared with 0.1 M phosphate buffer containing 6 mM CaCl2 (pH 6.9). Briefly, 20 µL of diluted V. opulus samples and 40 µL of potato starch (0.83 g/L) or starch from rice (1 g/L) solution were mixed with 20 µL of α-amylase (0.1 mg/mL for potato starch and 0.2 mg/mL for starch from rice) in a 96-well plate. […] The absorbance was read at 600 nm using a microplate reader (Synergy2, Biotek Instruments Inc., Winooski, VT, USA). […] Each sample was measured in triplicate.
The enzymes activities without and with tested samples were studied using the methods described in Section 2.5 and Section 2.6. A double reciprocal graph (1/v versus 1/S, where “v” is the reaction rate and “S” the concentration of the substrate), was plotted. All samples were tested at three different doses using six concentrations of substrate.

[5] = test system: rat intestinal α-glucosidase; experiment: Mode of α-glucosidase inhibition (Lineweaver-Burk); type: biochemical; conditions: for type of inhibition against α-glucosidase: regardless of the type of disaccharide
Protocol: The assessment of the α-glucosidase activity was slightly modified according to […] et al. and Gao et al.. […] Enzyme isolation was performed in an ultrasonic cleaner (for 30 sec) in an ice bath, then 30 sec without ultrasonic. […] After that, the solution was centrifuged at 4 °C (3000 rpm, 30 min). 50 μL of diluted V. opulus samples were mixed with 50 μL of enzyme supernatant (diluted 2 times for reaction with maltose). After incubation at 37 °C for 10 min, 50 μL of substrate (0.1 M maltose or 0.5 M sucrose solution prepared in 0.1 M phosphate buffer, pH 6.9) was added and incubated in a 96-well microplate at 37 °C for 20 min for maltose and 60 min for sucrose. The reaction was stopped by adding 150 μL of 2 M Tris-HCl buffer (pH 7.0). The concentration of glucose released from the reaction mixture was determined by the commercial glucose test (BIOMAXIMA SA, Lublin, Poland). […] A double reciprocal graph (1/v versus 1/S, where “v” is the reaction rate and “S” the concentration of the substrate), was plotted. All samples were tested at three different doses using six concentrations of substrate.

[6] = biological target: T2, α-amylase from porcine pancreas type VI-B (Sus scrofa, UniProt P00690); experiment: α-amylase inhibition assay (starch-iodine, spectrophotometric); type: biochemical
T2 construct: α-amylase from porcine pancreas type VI-B; purchased Sigma Aldrich (Steinheim, Germany) type VI-B (catalogue number not given); host or cells: porcine pancreas
T2 sequence (P00690 16-511): T1 sequence (P00690 16-511)
Protocol: as §1

[7] = biological target: sucrase from rat small intestine; parameters: method as in PMID 16787002; conditions: cited from earlier work
[8] = biological target: maltase from rat small intestine; parameters: method as in PMID 16787002; conditions: cited from earlier work
[9] = biological target: α-amylase porcine pancreas; parameters: method as in PMID 16787002; conditions: cited from earlier work
α-amylase = biological target: T3, α-amylase (Sus scrofa, UniProt P00690); parameters: method as in doi:10.3390/pr8111388; conditions: cited from earlier work
T3 construct: purchased Sigma Aldrich (Steinheim, Germany) type VI-B (catalogue number not given); host or cells: porcine pancreas
T3 sequence (P00690 16-511): T1 sequence (P00690 16-511)

[10] = test system: porcine pancreatic α-amylase; conditions: potato and maize starch; cited from earlier work

SMILES	IC50 for the inhibition of AGE formation [1]	IC50 for the inhibition of α-glucosidase ([3]; substrate maltose)	IC50 for the inhibition of α-glucosidase ([3]; substrate sucrose)	Inhibition Type ([4]; potato starch)	type of inhibition against α-amylase [4]	Inhibition Type ([4]; rice starch)	Inhibition Type ([5]; maltose)	Ki ([5]; maltose)	type of inhibition against α-glucosidase [5]	Inhibition Type ([5]; sucrose)	Ki ([5]; sucrose)	further results
Cl.N=C(N)NN [Aminoguanidine, aminoguanidine hydrochloride]	106.08 ± 3.17 µg·days/mL											IC50 for the inhibition of AGE formation [2]: 137.80 ± 3.44a µg/mL
C[C@H]1O[C@H](O[C@H]2[C@H](O)[C@@H](O)[C@@H](O[C@H]3[C@H](O)[C@@H](O)C(O)O[C@@H]3CO)O[C@@H]2CO)[C@H](O)[C@@H](O)[C@@H]1N[C@H]1C=C(CO)[C@@H](O)[C@H](O)[C@H]1O (some centres unmarked) [Acarbose, acarbose]		0.051 ± 0.001a µg/mL	1.37 ± 0.04a µg/mL	uncompetitive	uncompetitive; also recorded: uncompetitively	uncompetitive	mixed	/ 0.021 μg/mL	mixed type of inhibition (competitive and noncompetitive); also recorded: mixed mode of inhibition	mixed	/ 1.52 μg/mL	
O=C(/C=C/c1ccc(O)c(O)c1)O[C@@H]1C[C@](O)(C(=O)O)C[C@@H](O)[C@H]1O [Chlorogenic acid]	58.87 ± 0.93c µg/mL	103.37 ± 5.29bc µg/mL	99.81 ± 0.75ab µg/mL	competitive	competitive	competitive	noncompetitive	/ 145.41 μg/mL	noncompetitive-type inhibition	noncompetitive	/ 181.21 μg/mL	IC50 towards α-amylase higher than IC50 for CE, on average ([6]; average of both starches): 2.7 fold; IC50 towards α-amylase higher than IC50 for PE, on average ([6]; average of both starches): 14 fold; IC50 ([6]; substrate potato starch): 2.35 mM; IC50 ([6]; substrate starch from rice): 5.54 mM; lower inhibitory activity against α-glucosidase than PEAF ([3]; maltose): 1.7 fold; Ki ([4]; potato starch): 3.46 mM; Ki ([4]; rice starch): 5.32 mM; IC50 against sucrase [7]: 500 µg/mL (≈ 1.41 mM); IC50 against maltase [8]: 8810 µg/mL (≈ 24.9 mM); IC50 on α-amylase [9]: 13170 µg/mL (≈ 37.2 mM); lower inhibitory activity against α-amylase compared to acarbose (α-amylase): 5 fold; type of inhibitory effect on α-amylase hydrolysis of starch [10]: mixed type inhibitory effect

From publication PMC8235151, “Glycoside Hydrolases and Non-Enzymatic Glycation Inhibitory Potential of Viburnum opulus L. Fruit—In Vitro Studies” (Antioxidants, 2021)
